Patent publication US20090247520A1, “INHIBITORS OF ANTIGEN RECEPTOR-INDUCED NF-kappa B ACTIVATION” (The Burnham Institute for Medical Research, priority 2008, published 2009)
pIC50: −log10 of the molar value. Entries after “also recorded” stand apart in the source; their conditions may differ. Read-outs that look alike come from different tables or passages of the source.

Experiments:
[1] = system: HEK293 cells; assay: Cell viability assay (ATPlite), HEK293 cells; assay type: cell-based
Description: Cell viability assay. Cell viability was estimated based on cellular ATP levels, measured using ATPlite kit (Perkin Elmer). Cells at a density of 10^5/mL were seeded at 90 μL per well in 96-well white plates and cultured overnight. Compounds were added (5 μL in medium) to wells and cells were cultured for […], Finally, 50 μL ATPlite solution was added to each well and luminescence activity was read using a luminometer (LJL Biosystems, Sunnyvale, Calif.).

[2] = system: Anti-Lymphotoxin-β induced NF-κB luciferase activity; assay: NF-κB luciferase in HeLa cells induced by anti-Lymphotoxin-β receptor; assay type: cell-based; settings: listed as CID-2858522
Excerpt: FIG. 1 is a flow chart of screening and counter-screenings for selective inhibitors of antigen-receptor induced NF-κB pathway. A total of 114,889 compounds were screened. From a screen of 53,280 commercially available compounds (left column), 519 hits were obtained, of which 248 reconfirmed using the same primary screening assay. […] From these 11 active compounds, one hit, CID-2858522, inhibited PMA/Ionomycin-induced production of cytokine IL-8 by the HEK293 cell line. CID-2858522 was then characterized (right column). PDB was substituted for PMA to confirm suppression of an alternative PKC activator. Pathway selectivity was assessed using panels of cell lines, starting with HEK293 cells in which each of the remaining NF-κB activation pathways was stimulated, showing inhibition only of PMA/Ionomycin-induced NF-κB reporter gene activity (panel 1). […]

[3] = system: CLL B-cells; assay: Cytotoxicity in CLL B-cells by ATP levels; assay type: cell-based, human; settings: time-frame analyzed
[4] = system: PMA/Ionomycin-induced NF-κB reporter gene activity; assay: Transient transfection NF-κB-luciferase reporter assay (episomal plasmid), PMA/Ionomycin; assay type: cell-based; settings: not shown
Description: Dual-luciferase assay for NF-κB activity. Cells seeded in 96 well black plates were co-transfected with Renilla luciferase plasmid and NF-κB-responsive firefly luciferase reporter gene plasmid, with pcDNA3 control or plasmids encoding various desired proteins, using Lipofectamine 2000. The culture medium was aspirated and cells were washed with PBS, prior to adding 50 μL per well of Passive Lysis Buffer (Promega), followed by addition of Dual-luciferase assay reagent (Promega) and measurement of firefly and renilla luciferase activity, using a spectrofluorimeter.

[5] = system: PDB-induced IL-8 production; assay: PDBu-induced IL-8 production by HEK293 cells; assay type: cell-based; settings: Homo sapiens
Description: (A) Structures of two hit compounds, CID-2858522 (left) and CID-2998237 (right) are shown; (B, C) 293-NF-κB-luc cells were pretreated for 2 hrs with various concentration of either CID-2858522 (B) or CID-29982387 (C) and then stimulated with TNF (10 ng/mL) or PMA/lonomycin (10 ng/mL; 5 ng/mL) for 16 h. Luciferase activity was measured and data were expressed as a percentage relative to control treatment with DMSO only (mean±SD; n=3). (D) 293-NF-κB-luc cells were pretreated for 2 h with various concentrations of CID-2858522 or CID-2998237, then stimulated with PMA/lonomycin for 16 h. IL-8 release into the medium was measured, expressing data as a percentage relative to control cultures treated with DMSO (mean±SD; n=3). (E) 293-NF-κB-luc cells were pretreated with CID-2858522 and then stimulated with PDBu for 16 h, IL-8 production and NF-κB luciferase activity were measured as above. (F) 293-NF-κB-luc cells were pretreated for 2 h with various concentrations of CID-2858522 or a PKC inhibitor (Bisindolylmaleimide I) at 1 μM followed by PMA/Ionomycin (10 ng/mL) stimulation for 2 h, then p65-DNA-binding activity was measured in nuclear extracts (10 μg protein), expressing data as fold-increase relative to unstimulated cells (mean±SD; n=3).
Lymphokine measurements. […]

[6] = system: Raf; assay: KINOMEscan competition binding assay, Raf; design: species or system human; settings: 10 μM
Excerpt: CID-2858522 is not a potent protein kinase inhibitor. Protein kinases play critical roles in NF-κB activation. PKCs are proximal kinases in the NF-κB pathways activated by PMA/Ionomycin and by T- and B-cell antigen receptors, while the IKKs are distal kinases operating in the terminal segments of these and other NF-κB activation pathways. We therefore tested whether CID-2858522 inhibits members of these kinase families by in vitro kinase assays. For these experiments, we tested PKC-beta and PKC-theta (the PKC family members implicated in TCR/BCR signaling), and IKK-beta (a component of the IKK complex) (FIG. 6). […] In addition to assessing these three kinases by conventional in vitro kinase assays, a kinome screen was performed using a high throughput screening method, KINOMEscan™, which is an active-site dependent competition binding assay in which human kinases of interest are fused to a proprietary tag (Ambit). The amount of kinase bound to an immobilized, active-site directed ligand is measured in the presence and absence of the test compound. […] Thus, CID-2858522 inhibits none of the protein kinases previously implicated in regulating NF-κB.
In Vitro Kinase Assays. PKC-beta, PKC-theta and IKK-beta in vitro kinase assays were performed using the HTScan Kinase Assay Kit (Cell Signaling, Danvers, Mass.) according to manufacturer's protocols. […]

Cc1cc2nc(NCCCO)n(CC(=O)c3cc(C(C)(C)C)c(O)c(C(C)(C)C)c3)c2cc1C [Compound 1, 2-(2-(3-Hydroxypropylamino)-5,6-dimethyl-1H-benzo[d]imidazol-1-yl)-1-(3,5-di-tert-butyl-4-hydroxyphenyl)ethanone]
concentrations not toxic to HEK293 cells [1]: ≤ 8 µM | suppression of NF-κB luciferase, anti-Lymphotoxin-β in HeLa [2]: failed to inhibit; also recorded: did not suppress | cytotoxicity in CLL B-cells [3]: not due to cytotoxicity | inhibition of NF-κB reporter in transient transfection assay [4]: potently inhibited | pIC50 ([5]; read-out: IC50, PDB-induced IL-8 production): 7.00 | pIC50 ([5]; read-out: IC50, PDBu-induced IL-8 secretion (cellular potency)): > 7.00 | inhibition of Raf [6]: 57%
